Measured values from ChEMBL document CHEMBL1154003, “Synthesis of boronic acid derivatives of tyropeptin: proteasome inhibitors” (Bioorg Med Chem Lett, 2009).
Calls of active or inactive are those of the source. The calls are words filed in the database; no cut-off is given here.

Tests used:
[1] = Inhibition of peptidylglutamyl-peptide hydrolyzing activity of human 20S proteasome
[2] = Inhibition of chymotrypsin-like activity of human 20S proteasome
PC-3 = experiment: Cytotoxicity against human PC3 cells; format: functional, cell-based
[3] = Inhibition of trypsin-like activity of human 20S proteasome

Row | Structure (SMILES) | IC50 [1] [µM] | IC50 [2] [µM] | inhibition (PC-3) | IC50 [3] [µM]
1 | COc1ccc(CC(C=O)NC(=O)[C@@H](NC(=O)[C@H](Cc2ccc(OC)cc2)NC(=O)Cc2cccc3ccccc23)C(C)C)cc1 (stereo not given in full) | > 40 | 0.083 | Active | > 40
2 | COc1ccc(C[C@H](NC(=O)[C@@H](NC(=O)[C@H](Cc2ccc(OC)cc2)NC(=O)Cc2cccc3ccccc23)C(C)C)B(O)O)cc1 | > 40 | 0.0063 |  | 5.6
3 | COc1ccc(C[C@H](NC(=O)Cc2cccc3ccccc23)C(=O)N[C@H](C(=O)N[C@@H](Cc2ccccc2)B(O)O)C(C)C)cc1 | 7.4 | 0.0044 |  | 4.6
4 | COc1ccc(C[C@H](N)C(=O)N[C@H](C(=O)N[C@@H](Cc2ccccc2)B(O)O)C(C)C)cc1 | 7.7 | 0.1 |  | 4
5 | COc1ccc(C[C@H](NC(=O)Cc2cccc3ccccc23)C(=O)N[C@H](C(=O)N[C@@H](CC(C)C)B(O)O)C(C)C)cc1 | 0.94 | 0.0026 |  | 2.8
6 | COc1ccc(C[C@H](N)C(=O)N[C@H](C(=O)N[C@@H](CC(C)C)B(O)O)C(C)C)cc1 | 1.4 | 0.021 |  | 1.9
7 | COc1ccc(C[C@H](NC(=O)[C@@H](NC(=O)[C@@H](N)Cc2ccc(OC)cc2)C(C)C)B(O)O)cc1 | 16 | 0.13 |  | 3.7
8 | CC(C)C[C@H](NC(=O)[C@H](Cc1ccccc1)NC(=O)c1cnccn1)B(O)O [BORTEZOMIB] | 0.73 | 0.024 |  | > 40
